Values of other authors in publication PMC11437099 (Nature Communications, 2024).
Where two headings read alike, the source gives them in different places.

Legend:
[1] = tested on: patients with type 2 diabetes
[2] = tested on: patients with type 2 diabetes; remark: listed apart in the source

Substance | HbA1c change from baseline ([1]; 0.75 and 1.5 mg at 26 weeks) | Participants achieving HbA1c <7.0% ([1]; 0.75 and 1.5 mg at 26 weeks) | Body weight change from baseline ([2]; 0.75 and 1.5 mg doses at 26 weeks) | Participants achieving HbA1c <7.0% ([1]; 1.2 and 1.8 mg at 52 weeks) | Body weight change (weight loss) ([2]; 1.2 and 1.8 mg at 52 weeks)
dulaglutide: approved GLP-1 analog (Trulicity) | −1.25 to −1.46% | 63–72% | −1.0 to −1.5 kg |  | 
liraglutide: approved GLP-1 analog (Victoza, Saxenda) (HAEGTFTSDVSSYLEGQAAKEFIAWLVRGRG; chains of the INN, looked up) |  |  |  | 43–51% | −2.05 to −2.45 kg
